Where two headings read alike, the source gives them in different places. Square brackets hold non-standard residues; d marks the D form. Peptide text beside a SMILES is read from it. dBta = N[C@H](Cc1csc2ccccc12)C(=O)O
Tested on: human red blood cells
Experiment: Hemolytic activity
Format: cell-based
Experimental: Human red blood cells (Zenbio, North Carolina, USA) and peptides were separately diluted in PBS (blood concentration, 8%). The blood cell and peptide solutions were then mixed in 96-well polyethylene plates (SPL, Gyeonggi-do, Korea) and incubated for 18 h at 37 °C. The final concentration of human red blood cells was 4%, while peptide concentrations were 100 μM, 50 μM, 25 μM, 12.5 μM, 6.25 μM, 3.13 μM, 1.56 μM, and 0.78 μM. After incubation, the plates were centrifuged at 1000 × g for 5 min, and the supernatants were transferred to 96-well polyethylene plates. Hemolysis levels were determined by measuring the absorbance at 540 nm with a SpectraMax plate spectrophotometer (Molecular Devices, California, USA). Control samples were treated with 1% Triton X-100 (for 100% hemolysis) or solution with 0 μM peptide (for 0% hemolysis) and melittin (for positive control). Each experiment was performed in triplicate.

| Compound | Hemolysis percent, 25 μM | Hemolysis percent, 25 μM (red cells of human, 18 h, 25) | Hemolysis percent, 50 μM (red cells of human, 18 h, 50) | Hemolysis percent, 100 μM (red cells of human, 18 h) | Hemolysis percent, 50 μM |
| --- | --- | --- | --- | --- | --- |
| CCCCCCCCCC(=O)N[C@@H](Cc1c[nH]c2ccccc12)C(=O)N[C@H](CC(N)=O)C(=O)N[C@@H](CC(=O)O)C(=O)N[C@@H]1C(=O)NCC(=O)N[C@@H](CCCN)C(=O)N[C@@H](CC(=O)O)C(=O)N[C@H](C)C(=O)N[C@@H](CC(=O)O)C(=O)NCC(=O)N[C@H](CO)C(=O)N[C@@H]([C@H](C)CC(=O)O)C(=O)N[C@@H](CC(=O)c2ccccc2N)C(=O)O[C@@H]1C [Daptomycin, reference compound] | 0.01 ±0.02% | 0.01% | 0.03% | 0.04 ±0.02% | – |
| CC[C@@H](C)[C@@H](NC(=O)[C@@H](Cc1c[nH]c2ccccc12)NC(=O)[C@@H](CC(C)C)NC(=O)[C@@H](CC(C)C)NC(=O)[C@H](N)Cc1c[nH]c2ccccc12)C(=O)N[C@H](C)C(=O)N[C@H](CC(C)C)C(=O)N[C@H](CCCNC(=N)N)C(=O)N[C@H](CCCCN)C(=O)N[C@H](CCCCN)C(=O)N[C@H](CCCNC(=N)N)C(N)=O [WCopW3] (H-[dW][dL][dL][dW][dI][dA][dL][dR][dK][dK][dR]-NH2) | – | 3.64% | 9.36% | 13.37% | – |
| CC[C@@H](C)[C@@H](NC(=O)[C@@H](Cc1c[nH]c2ccccc12)NC(=O)[C@@H](CC(C)C)NC(=O)[C@@H](CC(C)C)NC(=O)[C@H](N)Cc1c[nH]c2ccccc12)C(=O)N[C@H](C)C(=O)N[C@H](CC(C)C)C(=O)N[C@H](CCCNC(=N)N)C(=O)N[C@H](CCCCN)C(=O)N[C@H](CCCCN)C(=O)N[C@H](CCCNC(=N)N)C(N)=O [WCopW4] (H-[dW][dL][dL][dW][dI][dA][dL][dR][dK][dK][dR]-NH2) | – | 5.94% | 9.85% | 18.84% | – |
| CC[C@@H](C)[C@@H](NC(=O)[C@@H](Cc1c[nH]c2ccccc12)NC(=O)[C@@H](CC(C)C)NC(=O)[C@@H](CC(C)C)NC(=O)[C@H](N)Cc1c[nH]c2ccccc12)C(=O)N[C@H](C)C(=O)N[C@H](CC(C)C)C(=O)N[C@H](CCCNC(=N)N)C(=O)N[C@H](CCCCN)C(=O)N[C@H](CCCCN)C(N)=O [WCopW6] (H-[dW][dL][dL][dW][dI][dA][dL][dR][dK][dK]-NH2) | – | 4.12% | 7.05% | 18.06% | – |
| CC[C@@H](C)[C@@H](NC(=O)[C@@H](Cc1c[nH]c2ccccc12)NC(=O)[C@@H](CC(C)C)NC(=O)[C@@H](CC(C)C)NC(=O)[C@H](N)Cc1c[nH]c2ccccc12)C(=O)N[C@H](C)C(=O)N[C@H](CC(C)C)C(=O)N[C@H](CCCNC(=N)N)C(=O)N[C@H](CCCCN)C(=O)N[C@H](CCCCN)C(N)=O [WCopW7] (H-[dW][dL][dL][dW][dI][dA][dL][dR][dK][dK]-NH2) | – | 7.25% | 10.05% | 14.99% | – |
| CC[C@@H](C)[C@@H](NC(=O)[C@@H](Cc1c[nH]c2ccccc12)NC(=O)[C@@H](CC(C)C)NC(=O)[C@H](N)CC(C)C)C(=O)N[C@H](C)C(=O)N[C@H](CC(C)C)C(=O)N[C@H](CCCNC(=N)N)C(=O)N[C@H](CCCCN)C(=O)N[C@H](CCCCN)C(=O)N[C@H](CCCNC(=N)N)C(N)=O [WCopW11] (H-[dL][dL][dW][dI][dA][dL][dR][dK][dK][dR]-NH2) | – | 0.94% | 1.02% | 1.08% | – |
| CC[C@@H](C)[C@@H](NC(=O)[C@@H](Cc1c[nH]c2ccccc12)NC(=O)[C@@H](CC(C)C)NC(=O)[C@H](N)CC(C)C)C(=O)N[C@H](C)C(=O)N[C@H](CC(C)C)C(=O)N[C@H](CCCCN)C(=O)N[C@H](CCCCN)C(=O)N[C@H](CCCCN)C(=O)N[C@H](CCCCN)C(N)=O [WCopW12] (H-[dL][dL][dW][dI][dA][dL][dK][dK][dK][dK]-NH2) | – | 0.98% | 0.98% | 0.98% | – |
| CC[C@@H](C)[C@@H](NC(=O)[C@@H](Cc1c[nH]c2ccccc12)NC(=O)[C@@H](CC(C)C)NC(=O)[C@@H](CC(C)C)NC(=O)[C@H](N)Cc1csc2ccccc12)C(=O)NCC(=O)N[C@H](CC(C)C)C(=O)N[C@H](CCCNC(=N)N)C(=O)N[C@H](CCCCN)C(=O)N[C@H](CCCCN)C(=O)N[C@H](CCCNC(=N)N)C(N)=O [WCopW16] (H-[dBta][dL][dL][dW][dI]G[dL][dR][dK][dK][dR]-NH2) | – | 2.77% | 5.57% | 10.59% | – |
| CC[C@@H](C)[C@@H](NC(=O)[C@@H](CC(C)C)NC(=O)[C@H](N)Cc1c[nH]c2ccccc12)C(=O)N[C@H](Cc1c[nH]c2ccccc12)C(=O)N[C@@H](C(=O)N[C@H](Cc1ccc(O)cc1)C(=O)N[C@H](CCCNC(=N)N)C(=O)N[C@H](CCCCN)C(=O)N[C@H](CCCCN)C(=O)N[C@H](CCCNC(=N)N)C(N)=O)C(C)C [WCopW27] (H-[dW][dL][dI][dW][dV][dY][dR][dK][dK][dR]-NH2) | – | 1.82% | 3.95% | 7.43% | – |
| CC[C@@H](C)[C@@H](NC(=O)[C@@H](Cc1c[nH]c2ccccc12)NC(=O)[C@H](NC(=O)[C@@H](CC(C)C)NC(=O)[C@H](N)Cc1c[nH]c2ccccc12)C(C)C)C(=O)N[C@H](Cc1c[nH]c2ccccc12)C(=O)N[C@H](CCCNC(=N)N)C(=O)N[C@H](CCCNC(=N)N)C(=O)N[C@H](CCCCN)C(=O)N[C@H](CCCNC(=N)N)C(N)=O [WCopW28] (H-[dW][dL][dV][dW][dI][dW][dR][dR][dK][dR]-NH2) | – | 2.33% | 1.97% | 5.26% | – |
| CC[C@@H](C)[C@@H](NC(=O)[C@@H](Cc1c[nH]c2ccccc12)NC(=O)[C@H](NC(=O)[C@@H](CC(C)C)NC(=O)[C@H](N)Cc1c[nH]c2ccccc12)C(C)C)C(=O)N[C@H](Cc1c[nH]c2ccccc12)C(=O)N[C@H](CCC(N)=O)C(=O)N[C@H](CCCNC(=N)N)C(=O)N[C@H](CCCNC(=N)N)C(=O)N[C@H](CCCNC(=N)N)C(N)=O [WCopW30] (H-[dW][dL][dV][dW][dI][dW][dQ][dR][dR][dR]-NH2) | – | 0.32% | 2.74% | 4.92% | – |
| CC[C@@H](C)[C@@H](NC(=O)[C@@H](Cc1c[nH]c2ccccc12)NC(=O)[C@H](NC(=O)[C@@H](CC(C)C)NC(=O)[C@H](N)Cc1c[nH]c2ccccc12)C(C)C)C(=O)N[C@H](Cc1c[nH]c2ccccc12)C(=O)N[C@H](CCCNC(=N)N)C(=O)N[C@H](CCCNC(=N)N)C(=O)N[C@H](CCC(N)=O)C(=O)N[C@H](CCCNC(=N)N)C(N)=O [WCopW31] (H-[dW][dL][dV][dW][dI][dW][dR][dR][dQ][dR]-NH2) | – | 0.35% | 1.82% | 6.88% | – |
| CC[C@@H](C)[C@@H](NC(=O)[C@@H](Cc1c[nH]c2ccccc12)NC(=O)[C@H](NC(=O)[C@@H](CC(C)C)NC(=O)[C@H](N)Cc1c[nH]c2ccccc12)C(C)C)C(=O)N[C@H](Cc1ccc(O)cc1)C(=O)N[C@H](CCCNC(=N)N)C(=O)N[C@H](CCCNC(=N)N)C(=O)N[C@H](CCCNC(=N)N)C(N)=O [WCopW33] (H-[dW][dL][dV][dW][dI][dY][dR][dR][dR]-NH2) | – | 3.49% | 6.35% | 9.93% | – |
| CC[C@@H](C)[C@@H](NC(=O)[C@@H](Cc1c[nH]c2ccccc12)NC(=O)[C@H](NC(=O)[C@@H](CC(C)C)NC(=O)[C@H](N)Cc1c[nH]c2ccccc12)C(C)C)C(=O)N[C@H](Cc1c[nH]c2ccccc12)C(=O)N[C@H](CCCNC(=N)N)C(=O)N[C@H](CCCNC(=N)N)C(=O)N[C@H](CCC(=O)O)C(=O)N[C@H](CCC(N)=O)C(N)=O [WCopW34] (H-[dW][dL][dV][dW][dI][dW][dR][dR][dE][dQ]-NH2) | – | -0.18% | -0.17% | -0.14% | – |
| CC(C)C[C@@H](NC(=O)[C@H](N)Cc1c[nH]c2ccccc12)C(=O)N[C@@H](C(=O)N[C@H](Cc1c[nH]c2ccccc12)C(=O)N[C@H](CC(=O)O)C(=O)N[C@H](Cc1c[nH]c2ccccc12)C(=O)N[C@H](CCCNC(=N)N)C(=O)N[C@H](CCCNC(=N)N)C(=O)N[C@H](CCCNC(=N)N)C(N)=O)C(C)C [WCopW38] (H-[dW][dL][dV][dW][dD][dW][dR][dR][dR]-NH2) | – | – | 0.06 ±0.06% | – | 0.06% |
| CC(C)C[C@@H](NC(=O)[C@H](N)Cc1c[nH]c2ccccc12)C(=O)N[C@@H](C(=O)N[C@H](Cc1c[nH]c2ccccc12)C(=O)N[C@H](CO)C(=O)N[C@H](Cc1c[nH]c2ccccc12)C(=O)N[C@H](CCCNC(=N)N)C(=O)N[C@H](CCCNC(=N)N)C(=O)N[C@H](CCCNC(=N)N)C(N)=O)C(C)C [WCopW39] (H-[dW][dL][dV][dW][dS][dW][dR][dR][dR]-NH2) | – | 0.09% | 0.06% | 0.36% | – |
| CC(C)[C@@H](NC(=O)[C@H](N)Cc1c[nH]c2ccccc12)C(=O)N[C@@H](C(=O)N[C@H](Cc1c[nH]c2ccccc12)C(=O)N[C@@H](C(=O)N[C@H](Cc1c[nH]c2ccccc12)C(=O)N[C@H](CCCNC(=N)N)C(=O)N[C@H](CCCNC(=N)N)C(=O)N[C@H](CCCNC(=N)N)C(N)=O)C(C)C)C(C)C [WCopW40] (H-[dW][dV][dV][dW][dV][dW][dR][dR][dR]-NH2) | – | 0.45% | 0.59% | 2.14% | – |

From publication PMC9643456, “Matching amino acids membrane preference profile to improve activity of antimicrobial peptides” (Communications Biology, 2022)
